Reference: PMC11235583, “Structural basis of odor sensing by insect heteromeric odorant receptors” (Science (New York, N.Y.), 2024)
Blank lines part the entries; values can stand above or below the molecule they belong to.

Assays:
[1] = biological target: T1, AaOR10/Orco (Ae. aegypti OR10 with A. bakeri Orco) (Aedes aegypti, UniProt Q177X3); experiment: cryo-EM structure of complex; format: binding; conditions: 2.9 Å; one site, in the OR10 subunit (S2, S3, S4, S6)
T1 construct: gene GPRor10; co-expressed in HEK293 cells; with Odorant receptor coreceptor (Apocrypta bakeri)
T1 sequence (Q177X3 1-375): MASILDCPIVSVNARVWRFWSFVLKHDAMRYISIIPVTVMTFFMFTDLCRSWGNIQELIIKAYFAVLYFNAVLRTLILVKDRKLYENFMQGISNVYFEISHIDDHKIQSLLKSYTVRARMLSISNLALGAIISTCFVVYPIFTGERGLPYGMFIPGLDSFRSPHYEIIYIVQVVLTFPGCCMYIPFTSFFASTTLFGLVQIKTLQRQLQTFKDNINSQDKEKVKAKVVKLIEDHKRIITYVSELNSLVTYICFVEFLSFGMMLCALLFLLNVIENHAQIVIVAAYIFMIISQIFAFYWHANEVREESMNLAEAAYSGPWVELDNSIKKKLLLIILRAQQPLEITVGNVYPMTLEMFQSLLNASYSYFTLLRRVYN
T1 sequence (B0FAQ4 1-474 partner): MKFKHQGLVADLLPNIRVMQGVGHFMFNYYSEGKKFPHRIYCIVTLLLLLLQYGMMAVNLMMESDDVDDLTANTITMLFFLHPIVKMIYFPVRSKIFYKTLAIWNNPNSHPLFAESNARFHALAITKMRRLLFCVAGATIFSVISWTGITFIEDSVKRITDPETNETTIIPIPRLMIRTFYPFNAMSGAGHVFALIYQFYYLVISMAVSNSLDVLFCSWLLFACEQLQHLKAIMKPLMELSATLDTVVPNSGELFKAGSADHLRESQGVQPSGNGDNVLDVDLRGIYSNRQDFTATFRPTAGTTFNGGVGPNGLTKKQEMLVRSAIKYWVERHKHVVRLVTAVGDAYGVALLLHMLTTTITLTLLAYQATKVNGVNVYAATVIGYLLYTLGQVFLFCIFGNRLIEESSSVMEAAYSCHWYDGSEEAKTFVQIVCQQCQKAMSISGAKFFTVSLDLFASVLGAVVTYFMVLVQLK

[2] = biological target: T1, AaOR10/Orco (Ae. aegypti OR10 with A. bakeri Orco); experiment: whole-cell voltage clamp, HEK293T cells; format: cell-based; conditions: agonist
Text: whole-cell voltage clamp, HEK293T cells on AaOR10/Orco (Ae. aegypti OR10 with A. bakeri Orco) | whole-cell currents of AaOR10/Orco are indistinguishable in EC50 and overall dose-response parameters | measure their response to indole and o-cresol, canonical odorants known to activate AaOR10 heteromers

[3] = biological target: T2, AaOR10 in complex with the Orco from Ae. aegypti (Aedes aegypti, UniProt Q177X3); experiment: whole-cell voltage clamp, HEK293T cells; format: cell-based; conditions: agonist
T2 construct: gene GPRor10; both subunits from Ae. aegypti, co-expressed in HEK293T cells; stoichiometry not determined; with Odorant receptor coreceptor
T2 sequence (Q177X3 1-375): T1 sequence (Q177X3 1-375)
T2 sequence (Q178U6 1-478 partner): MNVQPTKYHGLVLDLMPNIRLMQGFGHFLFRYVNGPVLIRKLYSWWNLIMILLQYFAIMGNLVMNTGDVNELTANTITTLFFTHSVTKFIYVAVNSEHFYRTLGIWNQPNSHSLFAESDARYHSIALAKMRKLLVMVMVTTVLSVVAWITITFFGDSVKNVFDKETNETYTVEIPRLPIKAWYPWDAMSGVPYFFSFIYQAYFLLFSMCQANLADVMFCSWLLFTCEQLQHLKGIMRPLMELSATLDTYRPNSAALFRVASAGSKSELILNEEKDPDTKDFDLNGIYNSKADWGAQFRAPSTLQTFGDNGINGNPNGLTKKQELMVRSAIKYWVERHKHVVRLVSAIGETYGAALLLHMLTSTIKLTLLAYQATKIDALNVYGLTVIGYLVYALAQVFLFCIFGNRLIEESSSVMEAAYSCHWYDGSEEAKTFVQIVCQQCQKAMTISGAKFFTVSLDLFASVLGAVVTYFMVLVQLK
Text: whole-cell voltage clamp, HEK293T cells on AaOR10 in complex with the Orco from Ae. aegypti | those obtained with AaOR10 in complex with the Orco from Ae. aegypti | AaOR10 with either A. bakeri (black) or Ae. aegypti Orco (gold)

[4] = biological target: Anopheles gambiae odorant receptor OR28 (Anopheles gambiae); experiment: cryo-EM structure; AgOR28 co-expressed with A. bakeri Orco, purified complex; unbound and 2,4,5-trimethylthiazole (TMT)-bound states
[5] = biological target: Aedes aegypti odorant receptor OR10 (Aedes aegypti); experiment: cryo-EM structure; AaOR10/Orco heteromers co-expressed in HEK293 cells (1:1 OR to Orco virus), purified by an affinity tag on the OR subunit, in detergent micelle; unbound and o-cresol-bound states
[6] = far from saturation at high concentration, limiting goodness of fit

Molecule: Cc1ccccc1O [o-cresol]
cryo-EM structure of complex [1]: determined the cryo-EM structure of the AaOR10/Orco complex bound to o-cresol
EC50 [2, 6]: 13.3 µM
EC50 [3, 6]: 11.3 µM

Molecule: c1ccc2[nH]ccc2c1 [indole]
EC50 ([2]; Hill coefficient about one): 1.09 µM
EC50 [3]: 1.51 µM

stoichiometry N (Orco subunits per OR subunit) [4]: 3
stoichiometry N (Orco subunits per OR subunit) [5]: 3
B1: Apocrypta bakeri odorant receptor co-receptor Orco (receptor)
chain: T1 sequence (B0FAQ4 1-474 partner)
